{
  "source": "patent US10300017B2",
  "about": "“Method and composition for treating cystitis” (Nanologix Research, Inc., priority 2012, dated 2019)",
  "origin": "cited, not measured here",
  "key": {"[1]": {"test_system": "interstitial cystitis", "conditions": "20 patients heparin 40,000 units, 20 patients 100 mg Elmiron, 80 mg lidocaine, 3 cc sodium bicarb"}, "[2]": {"conditions": "oral"}},
  "data": [
    {"substance": "pentosan polysulfate [Elmiron®]", "values": [
      {"measurement": "response to therapy (symptom relief), comparison of the two intravesical solutions", "setting": "[1]", "value": "no significant difference between the two solutions"},
      {"measurement": "systemic side effects", "setting": "[2]", "value": "hair loss, GI intolerance, headache, rash, sleep disturbance, and vertigo"},
      {"measurement": "fraction absorbed that reaches the circulation", "setting": "administered orally", "value": 6, "unit": "%"},
      {"measurement": "fraction of the administered dose recovered as intact drug in urine (mean)", "setting": "oral dose", "value": 0.14, "unit": "%"},
      {"measurement": "mean of an oral dose excreted in the urine", "setting": "oral dose, mostly as desulfated and depolymerized metabolites", "value": 6, "unit": "%"}
    ]},
    {"substance": "heparin", "values": [
      {"measurement": "response to therapy (symptom relief), comparison of the two intravesical solutions", "setting": "[1]", "value": "no significant difference between the two solutions"}
    ]}
  ]
}
